Results taken from patent publication US8912144B2, “Method for treating stroke via administration of NEP1-40 and inosine” (Children's Medical Center Corporation, priority 2003, dated 2014).
“Also recorded” adds a separate entry of the source.

Tests used:
Assay type in all cases: in vivo, rat
[1] = system: sensorimotor cortex infarct; assay: Lesion size / stroke volume after photothrombotic focal ischemia; details: 4 weeks treatment after focal ischemia
Description: All procedures were carried out in accordance with NIH Guidelines with the approval of Children's Hospital Animal Care and Use Committee. Unilateral in-farcts were induced in the sensorimotor cortex of adult Sprague-Dawley rats (275-300 g; Charles River Laboratories, Wilmington, Mass.) using the photothrombotic model of focal ischemia (Markgraf et al., 1993). Briefly, rats were anesthetized with a combination of ketamine (75 mg/kg) and Domitor (medetomidine; 0.5 mg/kg) and a 15 mm skin incision was made at the midline rostral to the posterior suture. A craniotomy was performed over the sensorimotor cortex using a hand-held drill to open a window that spanned medio-laterally between the sagittal sinus and temporal ridge, and rostro-caudally between Bregma +2.5 mm and Bregma −3.5 mm. […]
Sections through the telencephalon were cut at 10 μm, mounted on slides, and stained with Crystal Violet to determine the extent of the lesions. […] The area of the injured and uninjured hemisphere of each section was determined using NIH Image-J software. Lesion area was determined by subtracting the area of tissue remaining in the injured hemisphere from that in the uninjured hemisphere in sections spaced 250 μm apart spanning the full rostrocaudal extent of the lesion. […]

[2] = system: corticospinal tract (CST) axons; assay: BDA anterograde tracing of CST fibers from the undamaged hemisphere into the denervated side of the spinal cord after stroke
Description: All procedures were carried out in accordance with NIH Guidelines with the approval of Children's Hospital Animal Care and Use Committee. Unilateral in-farcts were induced in the sensorimotor cortex of adult Sprague-Dawley rats (275-300 g; Charles River Laboratories, Wilmington, Mass.) using the photothrombotic model of focal ischemia (Markgraf et al., 1993). Briefly, rats were anesthetized with a combination of ketamine (75 mg/kg) and Domitor (medetomidine; 0.5 mg/kg) and a 15 mm skin incision was made at the midline rostral to the posterior suture. A craniotomy was performed over the sensorimotor cortex using a hand-held drill to open a window that spanned medio-laterally between the sagittal sinus and temporal ridge, and rostro-caudally between Bregma +2.5 mm and Bregma −3.5 mm. The photosensitive dye Rose Bengal was injected into the femoral vein, and a fiber-optic cable connected to a xenon light source was centered over the craniotomy, focusing light directly on the exposed region of the brain for 30 minutes. A green filter fitted over the bulb restricted illumination to ˜525 nm, a wavelength that excites Rose Bengal and causes it to release free radical species. The subsequent damage to endothelial cells in exposed portions of the cortical vasculature causes platelet aggregation, resulting in severe focal ischemia. […] Control animals were generated using the same surgical procedure but without photo-activation of Rose Bengal. Animals with strokes were randomly assigned to receive a continuous infusion of either saline (0.9%, Baxter Scientific; n=12), inosine (50 mM in saline, Sigma-Aldrich Co., St. Louis, Mo.; n=12), NEP1-40 (500 μM in 2.5% DMSO/97.5% saline; n=12), or inosine +NEP1-40 (n=12) into the cisterna magna using osmotic minipumps (0.25 μl/h, Alzet model 2004, Durect Corpora-tion, Palo Alto, Calif.). In addition to these, a separate set of animals with the same 4 groups (n=12 in each) was created for a long-term behavioral study. Because CSF drug concentrations presumably require several hours to achieve steady-state levels when delivered via slow-releasing osmotic pumps, all animals received a 25 μl intraventricular bolus of the appropriate agent prior to pump placement. Pumps were tucked between the shoulder blades and infusion needles were secured onto the cranium with a silicon-based glue. The incision was closed with silk sutures and cleaned with betadine and ethanol pads. For 72 hours following surgery, animals received twice-daily, subcu-taneous injections of Buprenex (buprenorphine; Reckitt Benkiser Pharmaceuticals Inc., Richmond, Va.) for pain management.
In groups treated for four weeks after stroke, animals were re-anesthetized, the infusion needle and pump were removed, and a craniotomy was performed over the uninjured SMA. The anterograde tracer bioti-nylated dextran amine (BDA: Molecular Probes: 10% wt/vol in sterile saline) was injected stereotaxically at depths of 0.5, 1.0, and 2.0 mm below the cortical surface at 18 standardized points distributed over the sensorimotor cortex (70 nl per injection; Nano-ject, Drummond Scientific, Broomall, Pa.). Two weeks later, animals were anesthetized and perfused transcardially with 0.9% saline followed by 4% paraformaldehyde. The brain and spinal cord were dissected and post-fixed overnight in 4% paraformaldehyde, followed by 10% and 30% sucrose solutions over the next few days. Tissue was em-bedded in OCT Tissue Tek Medium (Sakura Finetek USA Inc., CA) and frozen on dry ice. Forty micron free-floating sections were cut in the coronal plane on a Frigo-Jung 8500 cryostat. Free-floating spinal cord sections were used to detect crossing fibers using avidin-biotin complex conjugated to horseradish peroxidase (Vectastain ABC Kit; Vector Laboratories), followed by Vector SG (Vector Laboratories) as a chromagen. Sections were mounted on pre-coated slides and lightly counterstained with eosin to distinguish grey and white matter boundaries. […]

C1q, C3, metallothionein = assay: Immunohistochemistry for C1q, C3 and metallothionein in layer 5 of the uninjured forelimb motor cortex; details: 7 days after stroke
Description: To investigate whether some of the changes seen in the microarray study translate into differences at the protein level, immunohistochemistry was performed for C1q, C3, and metallothionein (Study VII). […] Immunohistochemistry was used to investigate whether inosine-induced changes found at the mRNA level translate into changes at the protein level. Analyses were carried out in layer 5 of the uninjured forelimb motor cortex 7 days after a stroke was induced in the corresponding region of the contralateral hemisphere. Inosine induced changes in levels of complement proteins C1q (a) and C3 (b) and metallothionine (c).

[3] = Horizontal (irregular) ladder walk after dorsal hemisection of the spinal cord; details: i.c.v. (50 mM, 0.25 μl/hour) or i.v. (260 mM, 10 μl/hour) for 4 weeks
Description: (§1) To test the effects of inosine on spinal cord injury, the dorsal half of the spinal cord in rats was transected, severing the descending CST and other pathways. CST loss severely disrupted fine, skilled behaviors. Inosine was then administered either intra-cerebroventricularly (50 mM, 0.25 μl/hour) or intravenously (260 mM, 10 μl/hour) for 4 weeks. […] Complete transection of the corticospinal tract was verified histologically. The effectiveness of inosine was clinically relevant, since it avoids the risk of intracerebral infection.

[4] = system: raphespinal fibers and corticospinal tract axons; assay: Anatomical sprouting of raphespinal and corticospinal tract axons after spinal cord injury; details: after dorsal hemisection
Description: as §1

[5] = 4 weeks treatment after stroke, vs saline
[6] = layer 5 of undamaged hemisphere
[7] = layer 5 of undamaged hemisphere, vs saline

OC[C@H]1O[C@@H](n2cnc3c(O)ncnc32)[C@H](O)[C@@H]1O [inosine]
lesion size (mean±S.E.M) [1]: 81.1±8.6 pixels | number of synaptic bouton-like structures ([2]; 0.25 mm^2 box spanning Laminae VI and VII, vs saline): tripled | increase in number of labeled fibers ≧40 μm in gray matter on the denervated side [2, 5]: 2.5 fold | increase in number of lengthy axons (>200 μm) in gray matter on the denervated side [2, 5]: 3.5 fold | number of BDA-labeled CST fibers, inosine- vs saline-treated ([2]; CST axons labeled two weeks after stroke): No significant differences | increase in number of CST fibers re-crossing the midline to enter the denervated dorsal funiculus, relative to controls ([2]; inosine 50 mM infusion 4 weeks after stroke): three-fold | number of CST fibers in the denervated dorsal funiculus relative to NEP1-40 alone ([2]; inosine combined with NEP1-40): did not increase | number of axons >40 μm in the cervical gray matter relative to NEP1-40 alone ([2]; inosine combined with NEP1-40): strongly increased | number of axons >200 μm in the cervical gray matter relative to NEP1-40 alone ([2]; inosine combined with NEP1-40): strongly increased | metallothionine positively staining profiles per field (C1q, C3, metallothionein): 17.9±0.8 | increase of number of metallothionine positively staining profiles per field (C1q, C3, metallothionein; vs saline): 28% | C1q average grain pixel density (C1q, C3, metallothionein; [6]): 5654±894 | C3 average grain pixel density (C1q, C3, metallothionein; [6]): 1377±101 | increase of C1q staining intensity (C1q, C3, metallothionein; [7]): 75% | increase of C3 staining intensity (C1q, C3, metallothionein; [7]): 37% | performance on horizontal ladder walk [3]: enhanced performance; also recorded: far superior to saline-treated controls | long-distance corticospinal tract regeneration [4]: modest effects | sprouting of corticospinal tract axons rostral to the injury site [4]: enhanced the sprouting | sprouting of raphespinal fibers distal to the injury site [4]: enhanced the sprouting
